On the set-up of experiment [1]: method as in PMID 33711431. The note with it: read-out: DPPH scavenging IC50; cited from earlier work.
The target of experiment [2] is rat intestinal α-glucosidase. The experiment can be described thus: Rat intestinal α-glucosidase inhibitory activity. The format is biochemical. The note with it: IC50 > 1000 μM = inactive. As to the method:
The inhibitory activity of rat intestinal α-glucosidase was determined according to previously reported method with slight modifications. This procedure was performed by classifying four mixtures in different groups. The mixture (1) labelled “Blank of enzyme reaction” contained the mixture and DMSO (10 µL), sodium phosphate buffer (50 µL), glucose kit (80 µL), enzyme (20 µL) and substrate (20 µL maltose, sucrose 20 µL). A 10 µL of sample and samples with various concentrations of compounds was added to the well Plates (3) and (4). A 50 µL of sodium phosphate buffer (pH 6.9) was then added to well Plates (1) and (3), and a 30 µL of the buffer was added to well Plates (2) and (4), respectively. The substrate (maltose, 20 µL; sucrose 20 µL) was then added to the Plates (2) and (4). A glucose kit (80 µL each) and the enzyme (20 µL) were added to all plates and were incubated for 10 min for maltose and 40 min for sucrose. Finally, the absorbance was then measured at λ = 520 nm using a microplate reader (BioTek ELx800TM, BioTek Instruments, Inc., Winooski, VT, USA).

A short description of experiment [3]: Ferric reducing-antioxidant power (FRAP) assay. The note with it: for FRAP: reduction power. As to the method:
The FRAP assay was determined according to the described method using 300 mM acetate buffer, 40 mM HCl, 10 mM (2,4,6 Tris(2-pyridyl)-s-triazine (TPTZ)), 20 mM FeCl3·6H2O. For standard curve comparison, a 10:1:1 (acetate buffer: TPTZ: H2O) and sample ratio 10:1:1 (acetate buffer: TPTZ: FeCl3·6H2O) were constructed. The standard curve was prepared using various concentrations of FeSO4·7H2O. The reaction mixture was incubated at 37 °C for 30 min followed by measurement of the absorbance at 593 nm. In this test, the reduction capacity of the tested compound calculated concerning the reaction signal given by the Fe^2+ solution. The FRAP value was expressed as µM Fe^2+/g ((Frap value of sample (µM) = abs (sample) × FRAP value of std (µM)/abs (std).

In experiment [4] the test system is Plasmodium falciparum. The note with it: read-out: IC50 against Plasmodium falciparum; cited from earlier work.
Experiment [5] has as its system P. falciparum strain 3D7. The experiment can be described thus: In vitro antiplasmodial assay (pLDH method). The format is cell-based. The note with it: Plasmodium falciparum; for inhibition at 10 µg/mL: read-out: % Inhibition (10 μg/mL). As to the method: The parasites used in this test were synchronized (Ring stage) with ± 0.3% parasitemia (2% hematocrit). […] The well plates were put in the chamber with mix gas atmosphere (O2 5%, CO2 5% and N2 90%) and incubated for 72 h at 37 °C. After that, the plate was harvested and stored at −30 °C. After 24 h, the pLDH assay was performed by reading the absorbance at 650 nm using a SpectraMax Paradigm® Multi-Mode microplate reader.

Experiment [6] is described as follows: ABTS radical scavenging assay. The note with it: for IC50: IC50 > 1000 μM = inactive. As to the method: The antioxidant activity was also determined by free radical ABTS (2,2″-azinobis (3-ethyl benzothiazoline-6-sulfonic acid) according to the reported procedure. In this test, 7 mM ABTS solution was prepared and mixed with a buffer solution of potassium peroxydisulfate, incubated for 16 h, and protected from light. A total of 10 μL of the sample and 1 mL of the ABTS was incubated for 4 min and measured at a wavelength of 734 nm. This experiment was performed triplo using quercetin and gallic acid as controls. The ABTS inhibitory activity was calculated by the equation [(Ab-As)/Ab] × 100%.

A short description of experiment [7]: DPPH radical scavenging assay. The note with it: for IC50: IC50 > 1000 μM = inactive. As to the method: DPPH (1,1-diphenyl-2-picrylhydrazyl) was used for the antioxidant test using quercetin and gallic acid as controls. The compounds were diluted at concentrations of 159.73, 79.87, 39.93, 19.97, 9.98 µg/mL. A total 1 mL of DPPH 6 × 10^−5 M solution, complete with 33 µL of the compound, was incubated at 37 °C for 20 min. […] The radical inhibitory activity was calculated using the equation [(Ab-As)/Ab] × 100%.
(Loss of DPPH colour is used to gauge radical scavenging.)

Experiment [8] deals with T1, Porcine pancreatic α-amylase (Sus scrofa, UniProt P00690).
T1 sequence (P00690 16-511): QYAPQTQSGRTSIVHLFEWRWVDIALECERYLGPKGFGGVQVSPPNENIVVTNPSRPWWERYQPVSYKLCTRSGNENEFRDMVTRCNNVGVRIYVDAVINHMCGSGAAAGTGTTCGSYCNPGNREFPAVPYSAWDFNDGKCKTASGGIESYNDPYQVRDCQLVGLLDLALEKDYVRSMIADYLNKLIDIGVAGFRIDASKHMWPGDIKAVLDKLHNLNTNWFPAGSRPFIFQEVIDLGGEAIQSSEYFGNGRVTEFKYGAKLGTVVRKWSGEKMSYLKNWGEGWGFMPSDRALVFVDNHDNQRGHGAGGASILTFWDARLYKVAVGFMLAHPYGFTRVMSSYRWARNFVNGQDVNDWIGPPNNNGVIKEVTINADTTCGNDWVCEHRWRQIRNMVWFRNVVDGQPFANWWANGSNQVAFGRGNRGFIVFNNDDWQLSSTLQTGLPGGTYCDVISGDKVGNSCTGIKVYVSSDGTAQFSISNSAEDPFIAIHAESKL
The experiment can be described thus: α-Amylase inhibitory activity. It is filed as biochemical. The note with it: read-out: α-Amylase Starch IC50. As to the method: The modified α-amylase enzyme inhibition test was conducted for antidiabetic activity evaluation. A total of 10 mg sample was dissolved in 1 mL DMSO and 0.1 M phosphate buffer and 5 mg α-amylase solution (Porcine pancreatic α-amylase) in 1 mL phosphate buffer pH 6.9 was added. A 100 mg of potato starch (substrate) was heated in 5 mL of 0.1 M phosphate buffer for 5 min and cooled to room temperature. Then, 20 µL of the sample and 50 µL of substrate were mixed into 30 µL of phosphate buffer. The mixture was pre-incubated for 5 min followed by the addition of 20 µL of α-amylase enzyme and then incubation at 37 °C for 15 min. The color development was performed by adding 50 µL of 1M HCl and 50 µL of 10% iodine solution. Finally, the absorbance was measured at a wavelength of 650 nm.

Experiment [9] concerns the target α-glucosidase. The note with it: cited from earlier work.
[10] abbreviates: substrate maltose, read-out: α-Glucosidase Maltose IC50.
Where [11] appears, read: substrate sucrose, read-out: α-Glucosidase Sucrose IC50.
[12] abbreviates: P. falciparum 3D7, 10 μg/mL, 72 h.
Setting [13] is: P. falciparum 3D7, 72 h, read-out: IC50.

The source of these data is PMC8533219, “Evaluation of the Antioxidant, Antidiabetic, and Antiplasmodial Activities of Xanthones Isolated from Garcinia forbesii and Their In Silico Studies” (Biomedicines, 2021).

Several values for one entry are separate records, joined by “and”; a condition that tells them apart may be missing. Identical values can stand only once. Like-named read-outs stand apart in the source and are kept apart here.

For the compound `O=c1c2cc(O)c(O)cc2oc2cc(O)cc(O)c12` [1,3,6,7-tetrahydroxyxanthone], the IC50 (commonly the concentration at which inhibition is half-maximal) in experiment [1] is 28.4 µM.
In the case of `C[C@H]1O[C@H](O[C@H]2[C@H](O)[C@@H](O)[C@@H](O[C@H]3[C@H](O)[C@@H](O)C(O)O[C@@H]3CO)O[C@@H]2CO)[C@H](O)[C@@H](O)[C@@H]1N[C@H]1C=C(CO)[C@@H](O)[C@H](O)[C@H]1O` (stereo partly drawn) [Acarbose, reference compound], the values for the IC50 in experiment [2] (setting [10]) and in experiment [2] (setting [11]) were 3.4 ± 0.27 µM and 4.6 ± 0.51 µM, respectively.
As for `O=C1O[C@H]([C@@H](O)CO)C(O)=C1O` [Ascorbic acid, reference compound], the half-maximal inhibitory concentration (IC50) in [1] was 48 µM. Also, the FRAP stood at 30.6 ± 0.27 µM Fe^2+/g in experiment [3] and 30.6 µM Fe^2+/g in experiment [3] (listed as ascorbic acid).
On to `CCN(CC)CCCC(C)Nc1ccnc2cc(Cl)ccc12` (stereo not drawn) [Chloroquine, reference compound], for which the IC50 in [4] is 0.3 µM. Further, in experiment [5] (3D7, 72 h), the IC50 came out at 0.006 ± 0.01 µM and the inhibition at 10 µg/mL came to 98.8 ± 0.25%.
`COc1cc(C)c2c(=O)c3c(O)cc(OC)cc3oc2c1` [Compound 1, lichexanthone] had an FRAP in experiment [3] of 5.7 ± 0.57 µM Fe^2+/g. The IC50 in [6], in experiment [2] (setting [10]), in experiment [2] (setting [11]), in [7] and in experiment [8] was > 1000 µM in each case. Also, the “α-Glucosidase Maltose IC50” value in experiment [2] (substrate maltose) was “inactive”. Also, the “α-Glucosidase Sucrose IC50” value in [2] (substrate sucrose) was “inactive”. For the same compound, the inhibition at 10 µg/mL in experiment [5] (setting [12]) was < 10%.
On to `C=CC(C)(C)c1cc(O)c(O)c2c(=O)c3cc4c(c(O)c3oc12)OC(C)(C)C=C4` [Compound 2, subelliptenone H], for which the FRAP in [3] is 166.3 µM Fe^2+/g and 166.3 ± 1.47 µM Fe^2+/g. Further, the “ABTS % Inhibition (99 μg/mL)” value in [6] was 97.29 ± 0.04%. Besides, the IC50 is 2.7 ± 0.05 µM in [6]; 43.8 ± 1.51 µM in [2] (setting [11]); 19.4 ± 0.15 µM in experiment [7]; 3.3 ± 0.04 µM in experiment [5] (setting [13]); 41.3 ± 1.24 µM in experiment [8]. Moreover, in [7], the “DPPH % Inhibition (159.7 μg/mL)” value was found to be 95.29 ± 0.05%. Moreover, the inhibition at 10 µg/mL in [5] (setting [12]) was 86.8 ± 0.33%.
`C=CC(C)(C)c1cc(O)c2oc3c(O)cccc3c(=O)c2c1O` [Compound 3, 12b-hydroxy-des-D-garcigerrin A]: the FRAP in experiment [3] is listed as 203.9 ± 1.19 µM Fe^2+/g. Further, the “Iron reducing power, fold greater than ascorbic acid” value in experiment [3] (relative to ascorbic acid) is listed as “approximately 6 fold”. Also, in experiment [6], the “ABTS % Inhibition (99 μg/mL)” value was determined as 98.31 ± 0.05%. The IC50 in experiment [6] turned out to be 0.05 ± 0.01 µM; in experiment [2] (setting [10]) it was 109 ± 1.31 µM; in [2] (setting [11]) it was 79.6 ± 2.01 µM; in experiment [7], 18.9 ± 0.1 µM; in [5] (setting [13]), 5 ± 0.04 µM; in experiment [8] it was 28.7 ± 0.35 µM. In experiment [6] (relative to quercetin), the “ABTS IC50, fold lower than quercetin” value stood at 4 fold. In addition, in experiment [7], the “DPPH % Inhibition (159.7 μg/mL)” value is given as 96.83 ± 0.03%. For the same compound, the inhibition at 10 µg/mL in [5] (setting [12]) turned out to be 87.9 ± 0.23%.
Regarding `C=CC(C)(C)c1cc(O)c2oc3c4c(ccc3c(=O)c2c1O)C=CC(C)(C)O4` [Compound 4, garciniaxanthone B], the FRAP in [3] is 192.7 µM Fe^2+/g and 192.7 ± 0.77 µM Fe^2+/g. The “ABTS % Inhibition (99 μg/mL)” value in [6] came out at 96.15 ± 0.01%. Further, the IC50 in [6] came out at 7.9 ± 0.01 µM; in experiment [2] (setting [10]) it was 139.4 ± 1.21 µM; in [2] (setting [11]) it was 75.9 ± 2.11 µM; in experiment [7] it was 14.1 ± 0.07 µM; in experiment [8], 10.8 ± 0.04 µM. The “DPPH % Inhibition (159.7 μg/mL)” value in [7] was found to be 95.38 ± 0.08%. Besides, the inhibition at 10 µg/mL in experiment [5] (setting [12]) was < 10%.
For `C=CC(C)(C)c1cc(O)c2oc3c4c(ccc3c(=O)c2c1O)[C@H](O)[C@H](O)C(C)(C)O4` [Compound 5, garcigerin A], in experiment [3], the FRAP was 187.8 µM Fe^2+/g and 187.8 ± 1.36 µM Fe^2+/g. Further, the “ABTS % Inhibition (99 μg/mL)” value in experiment [6] was determined as 97.40 ± 0.03%. Moreover, the IC50 in experiment [6] came to 6.5 ± 0.02 µM; in [2] (setting [10]) it was 91 ± 1.14 µM; in experiment [2] (setting [11]) it was 37.4 ± 1.2 µM; in [7], 20.4 ± 0.22 µM; in [8], 18.7 ± 0.54 µM. Moreover, the “DPPH % Inhibition (159.7 μg/mL)” value in experiment [7] amounted to 96.60 ± 0.05%. Besides, the inhibition at 10 µg/mL in [5] (setting [12]) was < 10%.
With `O=C(O)c1cc(O)c(O)c(O)c1` [Gallic acid, reference compound], in experiment [6], the “ABTS % Inhibition (99 μg/mL)” value was found to be 96.30 ± 0.01% and the IC50 was 0.7 ± 0.01 µM. Further, in experiment [7], the “DPPH % Inhibition (159.7 μg/mL)” value came to 97.21± 0.01% and the IC50 was found to be 3 ± 0.01 µM.
Regarding `O=c1c(O)c(-c2ccc(O)c(O)c2)oc2cc(O)cc(O)c12` [Quercetin, reference compound], in experiment [6], the “ABTS % Inhibition (99 μg/mL)” value was 97.58 ± 0.01% and inhibition was half-maximal at 0.17 ± 0.01 µM (IC50). In addition, in experiment [7], the “DPPH % Inhibition (159.7 μg/mL)” value was 96.34 ± 0.01% and the IC50 stood at 4.1 ± 0.01 µM.
As for `CC(C)=CCc1c(O)cc2oc3c(CC=C(C)C)c(O)c(O)c(CC=C(C)C)c3c(=O)c2c1O` [garcinone E], the IC50 in experiment [1] was 63.1 µM.
For the compound `CC(C)=CCC/C(C)=C/Cc1c(O)c(O)cc2oc3cc(O)c(CC=C(C)C)c(O)c3c(=O)c12` [norcowanin], the IC50 in experiment [9] was 1.7 µM.
In the case of garcinoxanthones SV, the 50% inhibitory concentration (IC50) in [1] was 68.5 µM.
As for subelliptenone F, in [9], the IC50 was 4.1 µM.
